Patent US11078499B2, “Host cells and methods for producing toluene biochemically” (The Regents of the University of California, priority 2018, dated 2021)

Test system: PhdB
Assay: Assays testing whether PhdB could decarboxylate o-, m-, or p-hydroxyphenylacetate, equimolar with phenylacetic acid-2-13C
Assay type: biochemical, Acidobacteria strain Tolsyn
Details: for PhdB activity on substrate: relative to phenylacetate, equimolar 2.5 mM
Description: Analogous assays with o- and m-hydroxyphenylacetate similarly indicated very low (in this case, undetectable) PhdB activity for these hydroxyphenylacetate isomers, whereas labeled toluene is easily detected.
Assays for phenylacetate decarboxylase activity were performed under strictly anaerobic conditions within a glove box. Assays, which were performed in 4-mL glass vials sealed with 13-mm diameter PTFE Mininert screw-cap valves (Sigma-Aldrich), contained […] PhdA in assay buffer [50 mM TRIS (pH 7.5), 150 mM NaCl, 1 mM MgCl2, 5 mM (NH4)2SO4, 5 mM DTT)], to which 2 mM dithionite was added and incubated for ˜1 hour, followed by the addition of 2 mM SAM, 2.5 μM PhdB in assay buffer, and 2.5 mM phenylacetic acid-2-^13C in a final volume of 1 or 1.5 mL (depending on the specific experiment). Quantitative standards contained the same headspace/liquid ratios as assays and a dimensionless Henry's constant of 0.27^43 was used to calculate aqueous concentration. Negative controls were run concurrently and were identical except for the absence of SAM (FIG. 6). The vials were shaken on a tabletop orbital shaker at low speed. Gaseous headspace samples (100 μL) were taken within the glove box using a 500-μL gastight syringe (Sample-Lok series A-2; Sigma-Aldrich) and analyzed immediately by GC/MS, as described previously^8. Briefly, toluene was analyzed by static headspace, electron ionization (EI) GC/MS using a model 7890A GC (Agilent, Santa Clara, Calif.) with a DB-5 fused silica capillary column (30-m length, 0.25-mm inner diameter, 0.25-μm film thickness; Agilent) coupled to an HP 5975C series quadrupole mass spectrometer. As described elsewhere^8, the identity of [methyl-^13C]toluene was confirmed with the expected m/z 93/92 ratio of 0.6. Replicates involved separate assays rather than multiple analyses of a given assay sample. In assays testing whether PhdB could decarboxylate o-, m-, or p-hydroxyphenylacetate to o-, m-, or p-cresol, conditions were as described above except that equimolar amounts (2.5 mM) of o-, m-, or p-hydroxyphenylacetic acid (Sigma) and phenylacetic acid-2-^13C were added, and GC/MS analysis of o-, m-, or p-cresol in 1-μL liquid injections of concentrated hexane extracts were conducted as described previously^8. The identity of o-, m-, or p-cresol was assessed using retention time and the expected m/z 108/107 ratio of 1.16, 1.05, or 0.83, respectively, based on authentic standards.

`O=C(O)Cc1cccc(O)c1` [m-hydroxyphenylacetate, m-hydroxyphenylacetic acid] was tested, and the “PhdB activity on substrate” value was “undetectable”.

For `O=C(O)Cc1ccccc1O` [o-hydroxyphenylacetate, o-hydroxyphenylacetic acid], the “PhdB activity on substrate” value was “undetectable”.

For `O=C(O)Cc1ccc(O)cc1` [p-hydroxyphenylacetate], the “p-cresol level relative to that expected if PhdB activity were comparable to phenylacetate” value (equimolar phenylacetate and p-hydroxyphenylacetate (2.5 mM) with PhdA, PhdB and SAM) was “approximately 100 fold lower” and the “PhdB activity on substrate” value was “far lower activity”.
